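Assay format: 96-well plates, 48-hour exposure. GI50 = concentration required for 50% inhibition of growth.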 Calls of active or inactive are those of the source. No stated cut-off is given here; in the data, active = GI50 up to about 1.1 µM and inactive = higher.
What was measured:
Experiment in all cases: DTP human tumour cell line panel, 48 h
BT-549 = system: BT-549
HCT-116 = system: HCT-116
Malme-3M = system: Malme-3M
NCI-H226 = system: NCI-H226
SK-MEL-2 = system: SK-MEL-2
IGROV-1 = system: IGROV-1
SK-MEL-28 = system: SK-MEL-28
OVCAR-8 = system: OVCAR-8
SF-268 = system: SF-268
HCC 2998 = system: HCC 2998
OVCAR-3 = system: OVCAR-3
RXF 393 = system: RXF 393
A549 = system: A549
DU-145 = system: DU-145
SNB-75 = system: SNB-75
M14 = system: M14
HCT-15 = system: HCT-15
PC-3 = system: PC-3
MDA-N = system: MDA-N
MOLT-4 = system: MOLT-4

Structure (SMILES) | GI50 (BT-549) | GI50 (HCT-116) | GI50 (Malme-3M) | GI50 (NCI-H226) | GI50 (SK-MEL-2) | GI50 (IGROV-1) | GI50 (SK-MEL-28) | GI50 (OVCAR-8) | GI50 (SF-268) | GI50 (HCC 2998) | GI50 (OVCAR-3) | GI50 (RXF 393) | GI50 (A549) | GI50 (DU-145) | GI50 (SNB-75) | GI50 (M14) | GI50 (HCT-15) | GI50 (PC-3) | GI50 (MDA-N) | GI50 (MOLT-4)
CNC/C(Cl)=N/S(=O)(=O)c1ccc(C)cc1 | 16.3 µM (inactive) | 8.09 µM (inactive) | 9.66 µM (inactive) | 19.5 µM (inactive) | 15 µM (inactive) | 17.2 µM (inactive) | 31.6 µM (inactive) | 18.9 µM (inactive) | 19.5 µM (inactive) | 4.74 µM (inactive) | 12.4 µM (inactive) | 2.2 µM (inactive) | 13.2 µM (inactive) | 5.07 µM (inactive) | 5.18 µM (inactive) | 10.3 µM (inactive) | 16.1 µM | 9.59 µM (inactive) | 6.85 µM (inactive) | 
O=[N+]([O-])c1ccc(NN/N=N/c2ccc(-c3nc4ccccc4[nH]3)cc2)c([N+](=O)[O-])c1 | 48.3 µM (inactive) | 26.7 µM (inactive) | 75 µM (inactive) | 43.2 µM (inactive) | 29 µM (inactive) | 7.33 µM (inactive) | > 100 µM (inactive) | 22.5 µM (inactive) | 26.1 µM (inactive) | 31 µM (inactive) | 28.4 µM (inactive) | 47.3 µM (inactive) | 58.3 µM (inactive) | 66.1 µM (inactive) | 96.6 µM (inactive) | 23.1 µM (inactive) | 19.7 µM | 27.8 µM (inactive) | 39.9 µM (inactive) | 5.14 µM (inactive)
C=CCC(C(=O)O)c1ccccc1 (stereo not drawn) | > 100 µM (inactive) | > 100 µM (inactive) | > 100 µM (inactive) | > 100 µM (inactive) | > 100 µM (inactive) | > 100 µM (inactive) | > 100 µM (inactive) | > 100 µM (inactive) | > 100 µM (inactive) | > 100 µM (inactive) | > 100 µM (inactive) | > 100 µM (inactive) | > 100 µM (inactive) | > 100 µM (inactive) | > 100 µM (inactive) | > 100 µM (inactive) | > 100 µM | > 100 µM (inactive) | > 100 µM (inactive) | > 100 µM (inactive)
O=c1oc2ccc([N+](=O)[O-])cc2c(Nc2ccc3c(c2)Sc2ccccc2O3)c1[N+](=O)[O-] | 24 µM (inactive) | 15.8 µM (inactive) | 30.7 µM (inactive) | 18.8 µM (inactive) | 20.4 µM (inactive) | 21.6 µM (inactive) | 25.9 µM (inactive) | 25.3 µM (inactive) | 27.5 µM (inactive) | 13.6 µM (inactive) | 15.9 µM (inactive) | 22.4 µM (inactive) | 24.9 µM (inactive) | 36.7 µM (inactive) | 39.6 µM (inactive) | 19.4 µM (inactive) | 17.7 µM | 19.5 µM (inactive) | 28.6 µM (inactive) | 
O=C(CC(=O)Nc1ccccc1)NNC(Sc1ccccc1)c1cc(/N=N/c2ccc(Br)cc2)ccc1O (stereo not drawn) | 5.12 µM (inactive) | 0.448 µM (active) | 4.26 µM (inactive) | 0.444 µM (active) | > 10 µM (inactive) | 5.07 µM (inactive) | 2.92 µM (inactive) |  | 0.587 µM (active) | > 10 µM (inactive) | 0.394 µM (active) | 2.37 µM (inactive) | 3.85 µM (inactive) | 2.11 µM (inactive) | 3.15 µM (inactive) | 0.973 µM (active) | 0.678 µM | 1.45 µM (inactive) | 2.41 µM (inactive) | 0.0916 µM (active)
COc1ccc(C(CC(=O)C(C)(C)CN2CCCCC2)SCCS(=O)(=O)O)cc1 (stereo not drawn) | 45.7 µM (inactive) | 29 µM (inactive) | 20.9 µM (inactive) | 21.9 µM (inactive) | > 100 µM (inactive) | 53.2 µM (inactive) |  | 33.3 µM (inactive) |  | 67.3 µM (inactive) | 12.8 µM (inactive) | 40.4 µM (inactive) | 41.4 µM (inactive) | 66.1 µM (inactive) | 22.3 µM (inactive) | 18.7 µM (inactive) | 34.2 µM | 53.7 µM (inactive) | 29.6 µM (inactive) | 22.1 µM (inactive)
O=C(NC(Nc1ccc(F)c(Cl)c1)(C(F)(F)F)C(F)(F)F)OCc1ccccc1 | 14.7 µM (inactive) | 47.5 µM (inactive) | 43.5 µM (inactive) | > 100 µM (inactive) | 69.3 µM (inactive) | 39 µM (inactive) | > 100 µM (inactive) | 35 µM (inactive) | 62.7 µM (inactive) | 22.1 µM (inactive) | 17.3 µM (inactive) | 43.3 µM (inactive) | 43 µM (inactive) | 24.4 µM (inactive) | 36.9 µM (inactive) | 37 µM (inactive) | 22.4 µM | 17.4 µM (inactive) | 19.7 µM (inactive) | 26.4 µM (inactive)
O=[N+]([O-])c1cc(Cl)ccc1S(=O)(=O)N1CCCc2cc(Cl)ccc21 | 31.9 µM (inactive) | 28.6 µM (inactive) | 51.5 µM (inactive) | 82.4 µM (inactive) | > 100 µM (inactive) | 30.8 µM (inactive) | > 100 µM (inactive) | > 100 µM (inactive) | > 100 µM (inactive) | > 100 µM (inactive) | > 100 µM (inactive) | 51.2 µM (inactive) | 43.1 µM (inactive) | 61.5 µM (inactive) | 18.7 µM (inactive) | > 100 µM (inactive) | 33.7 µM | 55 µM (inactive) | 22.5 µM (inactive) | 6.11 µM (inactive)
CCOC(=O)/C=C/C(Br)=C(Br)/C=C/C(=O)OCC | 5.62 µM (inactive) | 2.77 µM (inactive) | 3.4 µM (inactive) | 29.5 µM (inactive) | 20.2 µM (inactive) | 14.2 µM (inactive) | 12.4 µM (inactive) | 4.79 µM (inactive) | 18 µM (inactive) | 20.6 µM (inactive) | 12.1 µM (inactive) | 8.93 µM (inactive) | 22.5 µM (inactive) | 13.1 µM (inactive) | 12.4 µM (inactive) | 13.3 µM (inactive) | 4.92 µM | 13.5 µM (inactive) | 10.3 µM (inactive) | 1.83 µM (inactive)
C/C=C(/CBr)CCC(Br)C(C)(C)Cl.C/C=C(\CBr)CCC(Br)C(C)(C)Cl (stereo not drawn) | > 10 µM (inactive) | > 10 µM (inactive) | > 10 µM (inactive) | > 10 µM (inactive) | > 10 µM (inactive) | > 10 µM (inactive) | > 10 µM (inactive) | > 10 µM (inactive) | > 10 µM (inactive) | > 10 µM (inactive) | > 10 µM (inactive) | > 10 µM (inactive) | > 10 µM (inactive) | > 10 µM (inactive) | > 10 µM (inactive) | > 10 µM (inactive) | > 10 µM | > 10 µM (inactive) | > 10 µM (inactive) | > 10 µM (inactive)
O=C1O/C(=C(\Br)c2ccc([N+](=O)[O-])cc2)c2ccccc21 | > 79.8 µM (inactive) | 97.9 µM (inactive) | > 49.9 µM (inactive) | > 100 µM (inactive) | 46.2 µM (inactive) | > 100 µM (inactive) | > 100 µM (inactive) | > 76.6 µM (inactive) | > 74 µM (inactive) | > 100 µM (inactive) | > 88.5 µM (inactive) | > 100 µM (inactive) | > 100 µM (inactive) | > 100 µM (inactive) | > 78.3 µM (inactive) | > 100 µM (inactive) | > 50.9 µM | > 100 µM (inactive) | > 66.2 µM (inactive) | 27.8 µM (inactive)
CC(C)Oc1cccc(N2C(CCc3c[nH]c4ccc(Br)cc34)=NS(=O)(=O)c3cnccc32)c1 | 57.4 µM (inactive) | 20.3 µM (inactive) | 80 µM (inactive) | 37.3 µM (inactive) | 53.2 µM (inactive) |  | > 100 µM (inactive) | 51.2 µM (inactive) | 69.8 µM (inactive) | 60.4 µM (inactive) | 51.3 µM (inactive) | 59.8 µM (inactive) | 29.2 µM (inactive) | 94.4 µM (inactive) | 48 µM (inactive) | 32.5 µM (inactive) | 30.8 µM | 24.7 µM (inactive) | 37.3 µM (inactive) | 14.8 µM (inactive)
CCOC(=O)C1=c2[nH]c3cccc4cccc(c43)n2C(=O)CC1c1ccccc1 (stereo not drawn) | > 100 µM (inactive) | > 100 µM (inactive) | > 100 µM (inactive) | > 100 µM (inactive) | > 100 µM (inactive) | > 100 µM (inactive) | > 100 µM (inactive) | > 100 µM (inactive) | > 100 µM (inactive) | > 100 µM (inactive) |  | > 100 µM (inactive) | > 100 µM (inactive) | > 100 µM (inactive) | > 100 µM (inactive) | > 100 µM (inactive) | > 100 µM | > 100 µM (inactive) | > 100 µM (inactive) | > 100 µM (inactive)
CCN(CC)CCNc1ccc2nc(C)n3c4ccc(OC)cc4c(=O)c1c23 | 5.31 µM (inactive) | 0.282 µM (active) | 5.33 µM (inactive) | 0.316 µM (active) | 12.4 µM (inactive) | 0.494 µM (active) | 10.4 µM (inactive) | 0.575 µM (active) | 0.979 µM (active) | 0.8 µM (active) | 3.14 µM (inactive) | 4.07 µM (inactive) | 0.668 µM (active) | 1.29 µM (inactive) | 4.68 µM (inactive) | 10.5 µM (inactive) | 1.22 µM | 0.955 µM (active) | 1.41 µM (inactive) | 0.0959 µM (active)

From ChEMBL document CHEMBL1201862, “PubChem BioAssay data set” (2004)
